Laboratory results reported in patent US9199971B2, “Arylethynyl pyrimidines” (Hoffmann-La Roche Inc., priority 2012, dated 2015).
Converted amounts (≈) assume the structure as drawn.

Tests used:
[1] = Spontaneous Glutathione (GSH) Addition Assay; design: key: Samples for which the mass of a covalent adduct was clearly detected (M+307) are indicated as FLAG (positive); Compounds for which no adduct was detected are designated NO FLAG (negative); settings: 10 μM test substance, 5 mM GSH, pH 7.4 phosphate buffer, 24 hours, room temperature; adduct by MS
Description: 10 μM of test substance dissolved in pH 7.4 phosphate buffer was incubated with 5 mM GSH (glutathione) for 24 hours at room temperature. The samples were then analyzed using a mass spectrometer to determine whether adducts between glutathione and the drug had been formed. Samples for which the mass of a covalent adduct was clearly detected (M+307) are indicated as FLAG (positive). Compounds for which no adduct was detected are designated NO FLAG (negative).

[2] = molecular target: T1, human mGlu5a receptor (Homo sapiens, UniProt P41594); experiment: Intracellular Ca2+ mobilization assay (mGlu5 PAM); type: cell-based; settings: HEK-293 cells expressing human mGlu5a; L-glutamate at EC20
T1 construct: expressed in transfected cells; host or cells: HEK-293 (monoclonal, stably transfected)
Description: A monoclonal HEK-293 cell line stably transfected with a cDNA encoding for the human mGlu5a receptor was generated; for the work with mGlu5 Positive Allosteric Modulators (PAMs), a cell line with low receptor expression levels and low constitutive receptor activity was selected to allow the differentiation of agonistic versus PAM activity. Cells were cultured according to standard protocols (Freshney, 2000) in Dulbecco's Modified Eagle Medium with high glucose supplemented with 1 mM glutamine, 10% (vol/vol) heat-inactivated bovine calf serum, Penicillin/Streptomycin, 50 μg/ml hygromycin and 15 μg/ml blasticidin (all cell culture reagents and antibiotics from Invitrogen, Basel, Switzerland).
About 24 hrs before an experiment, 5×10^4 cells/well were seeded in poly-D-lysine coated, black/clear-bottomed 96-well plates. The cells were loaded with 2.5 μM Fluo-4AM in loading buffer (1×HBSS, 20 mM HEPES) for 1 hr at 37° C. and washed five times with loading buffer. The cells were transferred into a Functional Drug Screening System 7000 (Hamamatsu, Paris, France), and 11 half logarithmic serial dilutions of test compound at 37° C. were added and the cells were incubated for 10-30 min. with on-line recording of fluorescence. Following this pre-incubation step, the agonist L-glutamate was added to the cells at a concentration corresponding to EC20 (typically around 80 μM) with on-line recording of fluorescence; in order to account for day-to-day variations in the responsiveness of cells, the EC20 of glutamate was determined immediately ahead of each experiment by recording of a full dose-response curve of glutamate.
Responses were measured as peak increase in fluorescence minus basal (i.e. fluorescence without addition of L-glutamate), normalized to the maximal stimulatory effect obtained with saturating concentrations of L-glutamate. Graphs were plotted with the % maximal stimulatory using XLfit, a curve fitting program that iteratively plots the data using Levenburg Marquardt algorithm. The single site competition analysis equation used was y=A+((B−A)/(1+((x/C)D))), where y is the % maximal stimulatory effect, A is the minimum y, B is the maximum y, C is the EC50, x is the log 10 of the concentration of the competing compound and D is the slope of the curve (the Hill Coefficient). From these curves the EC50 (concentration at which half maximal stimulation was achieved), the Hill coefficient as well as the maximal response in % of the maximal stimulatory effect obtained with saturating concentrations of L-glutamate were calculated.
A depression of the signal observed after addition of the EC20 concentration of L-glutamate was indicative of an inhibitory activity of the test compound.

[3] = Lyophilisation Solubility Assay (LYSA); type: physicochemical; settings: aqueous buffer, thermodynamic from solid, 0.05 M phosphate buffer pH 6.5
Description: The procedure of this automatic high throughput assay can be separated into two steps. First, DMSO stock solutions of test compounds are diluted in order to prepare four point calibration curves. The peak area at an optimal wavelength for each test compound is determined automatically by Ultra Fast Liquid Chromatography. The extraction of peak areas and retention times from the raw data is performed automatically. Using four concentrations and the related peak areas, slope and intercept of the calibration line is calculated. The correlation coefficient of the obtained regression line should be greater than 0.99. In the second phase, the sample solutions are prepared in duplicate from the DMSO stock solutions. The DMSO was removed using an evaporator. After evaporation of the DMSO, the solid drugs were solved in 0.05 M phosphate buffer (pH 6.5), stirred for one hour and afterwards shaken for two hours. After standing overnight (about 20 hours), the solutions are filtered using a microtiter filter plate. The filtrate and its 1/10 dilutions are then analyzed automatically by High Performance Liquid Chromatography (HPLC). The peak areas and retention times of the samples were extracted at the same wavelength used for the calibration.
The solubility is calculated using the following equation: S=(A−b)/a(×10 for the sample diluted 1/10)
Where S is the solubility in μg/mL; A is the peak area of the sample; a is the slope and b is the intercept of the calibration curve.

[4] = Solubility by 24 h equilibration in phosphate buffer, manual conventional HPLC (reference compound 106); type: physicochemical; settings: aqueous buffer, thermodynamic from solid, equilibrated 24 h in 0.05 M phosphate buffer pH 6.5
Description: In the case of reference compound 106, the compound was equilibrated for 24 h in 0.05 M phosphate buffer (pH 6.5) using a procedure identical to that performed with the LYSA assay. The amount of solute present was then directly determined using manual conventional HPLC analytics.

T1 sequence (P41594 21-1180 isoform P41594-2 limits assumed): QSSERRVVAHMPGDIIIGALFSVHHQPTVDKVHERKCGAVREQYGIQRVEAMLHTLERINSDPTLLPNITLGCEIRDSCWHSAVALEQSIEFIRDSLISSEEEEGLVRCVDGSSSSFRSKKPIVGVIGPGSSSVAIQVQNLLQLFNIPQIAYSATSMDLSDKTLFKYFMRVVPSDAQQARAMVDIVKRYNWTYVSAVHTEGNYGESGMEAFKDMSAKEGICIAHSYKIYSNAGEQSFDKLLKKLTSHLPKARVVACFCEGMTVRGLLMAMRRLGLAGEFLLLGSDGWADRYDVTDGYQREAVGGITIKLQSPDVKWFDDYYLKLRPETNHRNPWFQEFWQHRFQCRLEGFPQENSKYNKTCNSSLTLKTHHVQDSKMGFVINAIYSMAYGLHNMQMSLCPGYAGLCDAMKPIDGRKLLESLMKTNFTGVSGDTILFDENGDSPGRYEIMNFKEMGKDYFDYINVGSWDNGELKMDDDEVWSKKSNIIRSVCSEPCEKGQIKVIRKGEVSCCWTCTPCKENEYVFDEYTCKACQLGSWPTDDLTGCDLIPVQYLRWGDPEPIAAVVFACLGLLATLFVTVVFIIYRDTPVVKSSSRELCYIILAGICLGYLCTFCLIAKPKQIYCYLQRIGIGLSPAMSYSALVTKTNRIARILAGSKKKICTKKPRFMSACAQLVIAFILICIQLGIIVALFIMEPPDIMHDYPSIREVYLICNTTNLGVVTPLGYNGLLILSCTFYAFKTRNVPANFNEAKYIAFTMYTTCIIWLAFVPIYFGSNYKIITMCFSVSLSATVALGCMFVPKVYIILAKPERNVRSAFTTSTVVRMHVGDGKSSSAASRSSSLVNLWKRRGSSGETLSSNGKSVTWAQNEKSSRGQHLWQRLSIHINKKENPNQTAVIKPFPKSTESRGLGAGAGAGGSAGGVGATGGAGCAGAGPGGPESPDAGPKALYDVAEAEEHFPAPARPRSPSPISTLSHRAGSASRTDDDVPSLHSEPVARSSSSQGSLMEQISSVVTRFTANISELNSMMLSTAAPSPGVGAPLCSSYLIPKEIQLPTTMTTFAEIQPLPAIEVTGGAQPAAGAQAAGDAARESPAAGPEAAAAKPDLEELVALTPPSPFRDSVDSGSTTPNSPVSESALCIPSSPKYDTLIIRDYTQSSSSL

| Structure (SMILES) | GSH assay [1] | EC50 [2] [nM] | solubility [3] [µg/mL] | solubility at 24 h [4] [µg/mL] |
| --- | --- | --- | --- | --- |
| CN1C(=O)N(c2ccc(C#Cc3cccc(F)c3)nn2)[C@@H]2CCC[C@@H]21 (racemic) [Ref. 1 Ex. 174, reference compound] | FLAG | 11.9 | < 1 |  |
| CCN1C(=O)N(c2ncc(C#Cc3ccccc3)cn2)[C@@H]2CCC[C@@H]21 [Example 1, (−)-(3aR,6aS)-1-Ethyl-3-(5-phenylethynyl-pyrimidin-2-yl)-hexahydro-cyclopentaimidazol-2-one] | NO FLAG | 9.1 | 8 (≈ 24.1 µM) |  |
| CCN1C(=O)N(c2ncc(C#Cc3cccc(F)c3)cn2)[C@@H]2CCC[C@@H]21 [Example 2] | NO FLAG | 10.6 | 7 (≈ 20 µM) |  |
| CCN1C(=O)N(c2ncc(C#Cc3ccc(F)cc3)cn2)[C@@H]2CCC[C@@H]21 [Example 3] | NO FLAG | 11.5 | 4 (≈ 11.4 µM) |  |
| CCN1C(=O)N(c2ncc(C#Cc3cc(F)ccc3F)cn2)[C@@H]2CCC[C@@H]21 [Example 4] | NO FLAG | 10 | 16 (≈ 43.4 µM) |  |
| COCCN1C(=O)N(c2ncc(C#Cc3ccccc3)cn2)[C@@H]2CCC[C@@H]21 [Example 5, (−)-(3aR,6aS)-1-(2-Methoxy-ethyl)-3-(5-phenylethynyl-pyrimidin-2-yl)-hexahydro-cyclopentaimidazol-2-one] | NO FLAG | 12.5 | 171 (≈ 472 µM) |  |
| COCCN1C(=O)N(c2ncc(C#Cc3cccc(F)c3)cn2)[C@@H]2CCC[C@@H]21 [Example 6] | NO FLAG | 24.5 | 114 (≈ 300 µM) |  |
| COCCN1C(=O)N(c2ncc(C#Cc3ccc(F)cc3)cn2)[C@@H]2CCC[C@@H]21 [Example 7] | NO FLAG | 26.8 | 43 (≈ 113 µM) |  |
| COCCN1C(=O)N(c2ncc(C#Cc3cc(F)ccc3F)cn2)[C@@H]2CCC[C@@H]21 [Example 8] | NO FLAG | 15.7 | 75 (≈ 188 µM) |  |
| COCCCN1C(=O)N(c2ncc(C#Cc3ccccc3)cn2)[C@@H]2CCC[C@@H]21 [Example 9, (−)-(3aR,6aS)-1-(3-Methoxy-propyl)-3-(5-phenylethynyl-pyrimidin-2-yl)-hexahydro-cyclopentaimidazol-2-one] | NO FLAG | 30.9 | 153 (≈ 406 µM) |  |
| COCCCN1C(=O)N(c2ncc(C#Cc3cccc(F)c3)cn2)[C@@H]2CCC[C@@H]21 [Example 10] | NO FLAG | 31.6 | 115 (≈ 292 µM) |  |
| COCCCN1C(=O)N(c2ncc(C#Cc3ccc(F)cc3)cn2)[C@@H]2CCC[C@@H]21 [Example 11] | NO FLAG | 35 | 56 (≈ 142 µM) |  |
| CN1C(=O)N(c2ccc(C#Cc3ccccc3)cn2)[C@@H]2CCC[C@@H]21 [Ref. 1 Ex. 106, reference compound] |  | 8 |  | 0.011 (≈ 0.0347 µM) |
| CN1C(=O)N(c2ccc(C#Cc3ccccc3)nn2)[C@@H]2CCC[C@@H]21 [Ref. 1 Ex. 170, reference compound] | FLAG | 8.1 | 2 (≈ 6.28 µM) |  |
